In PubChem BioAssay (NCI):
Several values for one entry are separate records, joined by “and”; a condition that tells them apart may be missing. Equal values may be shown once.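 All cell lines were grown in 96-well plates and treated with compound for 48 hours. Abbreviation: GI50, concentration required for 50% inhibition of growth. Definition used: TGI = concentration required for complete inhibition of growth.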

How the values were obtained:
Assay in all cases: DTP human tumour cell line panel, 48 h
[1] = tested on: 786-0 renal
[2] = tested on: A498 renal
[3] = tested on: A549 NSCLC
[4] = tested on: ACHN renal
[5] = tested on: BT-549 breast
[6] = tested on: CAKI-1 renal
[7] = tested on: CCRF-CEM leukemia
[8] = tested on: COLO 205 colon
[9] = tested on: DU-145 prostate
[10] = tested on: EKVX NSCLC
[11] = tested on: HCC-2998 colon
[12] = tested on: HCT-116 colon
[13] = tested on: HCT-15 colon
[14] = tested on: HL-60(TB) leukemia
[15] = tested on: HOP-62 NSCLC
[16] = tested on: HOP-92 NSCLC
[17] = tested on: HS 578T breast
[18] = tested on: HT29 colon
[19] = tested on: IGROV1 ovarian
[20] = tested on: K-562 leukemia
[21] = tested on: KM12 colon
[22] = tested on: LOX IMVI melanoma
[23] = tested on: M14 melanoma
[24] = tested on: MALME-3M melanoma
[25] = tested on: MCF7 breast
[26] = tested on: MDA-MB-231 breast
[27] = tested on: MDA-MB-435
[28] = tested on: MDA-N
[29] = tested on: MOLT-4 leukemia
[30] = tested on: NCI-H226 lung
[31] = tested on: NCI-H23 lung
[32] = tested on: NCI-H460 lung
[33] = tested on: NCI-H522 lung
[34] = tested on: NCI/ADR-RES ovarian
[35] = tested on: OVCAR-3 ovarian
[36] = tested on: OVCAR-4 ovarian
[37] = tested on: OVCAR-5 ovarian
[38] = tested on: OVCAR-8 ovarian
[39] = tested on: PC-3 prostate
[40] = tested on: RPMI-8226 leukemia
[41] = tested on: RXF 393 renal
[42] = tested on: SF-268 CNS
[43] = tested on: SF-295 CNS
[44] = tested on: SF-539 CNS
[45] = tested on: SK-MEL-2 melanoma
[46] = tested on: SK-MEL-28 melanoma
[47] = tested on: SK-MEL-5 melanoma
[48] = tested on: SK-OV-3 ovarian
[49] = tested on: SN12C renal
[50] = tested on: SNB-19 CNS
[51] = tested on: SNB-75 CNS
[52] = tested on: SR leukemia
[53] = tested on: SW-620 colon
[54] = tested on: T-47D breast
[55] = tested on: TK-10 renal
[56] = tested on: U251 CNS
[57] = tested on: UACC-257 melanoma
[58] = tested on: UACC-62 melanoma
[59] = tested on: UO-31 renal

## C1CCN2CC3CCCN4CCCC(C2C1)C34 (stereo not given)
[1]
  TGI: > 100 µM
[2]
  TGI: > 100 µM
[3]
  TGI: > 100 µM
[4]
  TGI: > 100 µM
[5]
  TGI: > 100 µM
[6]
  TGI: > 100 µM
[7]
  TGI: > 100 µM
[8]
  TGI: > 100 µM
[9]
  TGI: > 100 µM
[10]
  TGI: > 100 µM
[11]
  TGI: > 100 µM
[12]
  TGI: > 100 µM
[13]
  TGI: > 100 µM
[14]
  TGI: > 100 µM
[15]
  TGI: > 100 µM
[16]
  TGI: > 100 µM
[17]
  TGI: > 100 µM
[18]
  TGI: > 100 µM
[19]
  TGI: > 100 µM
[20]
  TGI: > 100 µM
[21]
  TGI: > 100 µM
[22]
  TGI: > 100 µM
[23]
  TGI: > 100 µM
[24]
  TGI: > 100 µM
[25]
  TGI: > 100 µM
[26]
  TGI: > 100 µM
[27]
  TGI: > 100 µM
[28]
  TGI: > 100 µM
[29]
  TGI: > 100 µM
[30]
  TGI: > 100 µM
[31]
  TGI: > 100 µM
[32]
  TGI: > 100 µM
[33]
  TGI: > 100 µM
[34]
  TGI: > 100 µM
[35]
  TGI: > 100 µM
[36]
  GI50: > 100 µM and 24.7 µM
  TGI: > 100 µM
[37]
  TGI: > 100 µM
[38]
  TGI: > 100 µM
[39]
  TGI: > 100 µM
[40]
  TGI: > 100 µM
[41]
  TGI: > 100 µM
[42]
  TGI: > 100 µM
[43]
  TGI: > 100 µM
[44]
  TGI: > 100 µM
[45]
  TGI: > 100 µM
[46]
  TGI: > 100 µM
[47]
  TGI: > 100 µM
[48]
  TGI: > 100 µM
[49]
  TGI: > 100 µM
[50]
  TGI: > 100 µM
[51]
  TGI: > 100 µM
[52]
  TGI: > 100 µM
[53]
  TGI: > 100 µM
[54]
  TGI: > 100 µM
[55]
  TGI: > 100 µM
[56]
  TGI: > 100 µM
[57]
  TGI: > 100 µM
[58]
  TGI: > 100 µM

## COCCOCCOCCOc1ccc(C(C#N)N(CCc2ccccc2)C(=O)c2cc(C(=O)N(CCc3ccccc3)C(C#N)c3ccc(OCCOCCOCCOC)cc3)cc(C(=O)N(CCc3ccccc3)C(C#N)c3ccc(OCCOCCOCCOC)cc3)c2)cc1 (stereo not given)
[1]
  TGI: > 100 µM
[2]
  TGI: > 100 µM
[3]
  TGI: > 100 µM
[4]
  TGI: > 100 µM
[5]
  TGI: > 100 µM
[7]
  TGI: > 100 µM
[8]
  TGI: > 100 µM
[9]
  TGI: > 100 µM
[10]
  TGI: > 100 µM
[11]
  TGI: > 100 µM
[12]
  TGI: > 100 µM
[13]
  TGI: > 100 µM
[14]
  TGI: > 100 µM
[15]
  TGI: > 100 µM
[16]
  TGI: > 100 µM
[17]
  TGI: > 100 µM
[18]
  TGI: > 100 µM
[19]
  TGI: > 100 µM
[20]
  TGI: > 100 µM
[21]
  TGI: > 100 µM
[22]
  TGI: > 100 µM
[23]
  TGI: > 100 µM
[24]
  TGI: > 100 µM
[25]
  TGI: > 100 µM
[26]
  TGI: > 100 µM
[27]
  TGI: > 100 µM
[28]
  TGI: > 100 µM
[29]
  TGI: > 100 µM
[30]
  TGI: > 100 µM
[31]
  TGI: > 100 µM
[32]
  TGI: > 100 µM
[33]
  TGI: > 100 µM
[34]
  TGI: > 100 µM
[35]
  TGI: > 100 µM
[36]
  TGI: > 100 µM
[37]
  TGI: > 100 µM
[38]
  TGI: > 100 µM
[39]
  TGI: > 100 µM
[41]
  TGI: > 100 µM
[42]
  TGI: > 100 µM
[43]
  TGI: > 100 µM
[44]
  TGI: > 100 µM
[45]
  TGI: > 100 µM
[46]
  TGI: > 100 µM
[47]
  TGI: > 100 µM
[48]
  TGI: > 100 µM
[49]
  TGI: > 100 µM
[50]
  TGI: > 100 µM
[51]
  TGI: > 100 µM
[52]
  TGI: > 100 µM
[53]
  TGI: > 100 µM
[54]
  TGI: > 100 µM
[55]
  TGI: > 100 µM
[56]
  TGI: > 100 µM
[57]
  TGI: > 100 µM
[58]
  TGI: > 100 µM
[59]
  TGI: > 100 µM

## c1ccc(C2=Nc3cccc4cccc(c34)N2)cc1
[1]
  TGI: > 61.8 µM
[2]
  TGI: > 100 µM
[3]
  TGI: > 100 µM
[4]
  TGI: 62.5 µM
[5]
  TGI: > 85.7 µM
[6]
  TGI: > 94.6 µM
[7]
  TGI: 28.7 µM
[8]
  TGI: 40.9 µM
[9]
  TGI: > 100 µM
[10]
  TGI: > 100 µM
[11]
  TGI: > 100 µM
[12]
  TGI: 50.8 µM
[13]
  TGI: > 96.1 µM
[14]
  TGI: 8.14 µM
[15]
  TGI: > 100 µM
[16]
  TGI: 52.7 µM
[17]
  TGI: > 100 µM
[18]
  TGI: > 100 µM
[19]
  TGI: > 94.5 µM
[20]
  TGI: > 72.9 µM
[21]
  TGI: > 85.1 µM
[22]
  TGI: 60 µM
[23]
  TGI: > 100 µM
[24]
  TGI: > 77.6 µM
[25]
  TGI: > 69.4 µM
[26]
  TGI: 54.7 µM
[27]
  TGI: > 85.8 µM
[28]
  TGI: > 100 µM
[29]
  TGI: > 54.8 µM
[30]
  TGI: > 100 µM
[31]
  TGI: > 100 µM
[32]
  TGI: > 100 µM
[33]
  TGI: 24.8 µM
[34]
  TGI: > 72.1 µM
[35]
  TGI: 45.2 µM
[36]
  TGI: 42.6 µM
[37]
  TGI: > 100 µM
[38]
  TGI: > 87 µM
[39]
  TGI: 68 µM
[40]
  TGI: > 84.6 µM
[41]
  TGI: 45.6 µM
[42]
  TGI: > 90.6 µM
[43]
  TGI: > 100 µM
[44]
  TGI: > 100 µM
[45]
  TGI: > 93.1 µM
[46]
  TGI: > 100 µM
[47]
  TGI: > 100 µM
[48]
  TGI: > 100 µM
[49]
  TGI: > 100 µM
[50]
  TGI: > 100 µM
[51]
  TGI: > 100 µM
[52]
  TGI: 52.9 µM
[53]
  TGI: 39.3 µM
[54]
  TGI: 21.9 µM
[55]
  TGI: > 72 µM
[56]
  TGI: > 100 µM
[57]
  TGI: > 100 µM
[58]
  TGI: > 100 µM
[59]
  TGI: > 56.1 µM
